# Target: T1, ENPP1 (Homo sapiens, UniProt P22413)
# T1 sequence (P22413 1-925): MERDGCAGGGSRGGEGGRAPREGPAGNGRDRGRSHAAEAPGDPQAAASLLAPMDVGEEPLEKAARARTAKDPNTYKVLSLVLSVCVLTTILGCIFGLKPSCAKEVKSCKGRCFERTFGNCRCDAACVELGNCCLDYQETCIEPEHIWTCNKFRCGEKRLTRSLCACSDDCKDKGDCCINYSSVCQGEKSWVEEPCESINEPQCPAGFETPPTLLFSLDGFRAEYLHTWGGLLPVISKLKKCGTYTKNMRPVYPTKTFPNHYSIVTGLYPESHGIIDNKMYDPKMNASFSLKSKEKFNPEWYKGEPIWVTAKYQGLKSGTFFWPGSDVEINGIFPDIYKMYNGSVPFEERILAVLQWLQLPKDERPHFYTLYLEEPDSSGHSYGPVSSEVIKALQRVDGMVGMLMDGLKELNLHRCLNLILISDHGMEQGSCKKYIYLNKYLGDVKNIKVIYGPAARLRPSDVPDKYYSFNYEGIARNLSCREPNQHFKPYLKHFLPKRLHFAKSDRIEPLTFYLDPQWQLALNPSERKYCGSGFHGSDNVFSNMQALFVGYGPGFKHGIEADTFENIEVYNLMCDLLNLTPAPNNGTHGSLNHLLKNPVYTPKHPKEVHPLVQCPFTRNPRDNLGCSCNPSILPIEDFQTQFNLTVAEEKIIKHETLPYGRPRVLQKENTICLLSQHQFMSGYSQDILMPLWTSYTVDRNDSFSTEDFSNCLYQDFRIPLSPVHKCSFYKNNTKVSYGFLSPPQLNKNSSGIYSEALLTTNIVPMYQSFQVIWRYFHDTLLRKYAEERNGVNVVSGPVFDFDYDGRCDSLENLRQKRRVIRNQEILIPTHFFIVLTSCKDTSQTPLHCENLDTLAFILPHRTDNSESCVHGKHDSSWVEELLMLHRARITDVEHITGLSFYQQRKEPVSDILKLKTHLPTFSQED
# Test: Indirect quantitation of 2',3'-cGAMP hydrolysis (AMP-Glo Assay kit)
# Format: biochemical
# Details: cGAMP substrate; Ki from IC50 by Cheng-Prusoff; read-out: ENPP1 Inhibition -cGAMP: Ki
row,Ki,SMILES
1,> 1000 nM,"COc1ccc(C(=O)N2CCC(CCNS(N)(=O)=O)CC2)cc1OC [Example 47, N (2-(1-(3,4-dimethoxybenzoyl)piperidin-4-yl)ethyl)sulfamide]"
2,< 100 nM,"COc1ccc2c(Oc3ccc(NS(N)(=O)=O)cn3)ccnc2c1 [Example 320, N-(6-((7-methoxyquinolin-4-yl)oxy)pyridin-3-yl)sulfamide]"
3,100 to 1000 nM,"COc1cc2ncnc(-c3ccc(NS(N)(=O)=O)cc3)c2cc1OC [Example 113, N-(4-(6,7-dimethoxyquinazolin-4-yl)phenyl)sulfamide]"
4,> 1000 nM,"COc1ccc(-c2cc(N3CCC(NS(N)(=O)=O)CC3)ncn2)cc1OC [Example 36, N-(1-(6-(3,4-dimethoxyphenyl)pyrimidin-4-yl)piperidin-4-yl)sulfamide]"
5,< 100 nM,"COc1cc2c(=O)ccn(Cc3ccc(NS(N)(=O)=O)cc3)c2cc1OC [Example 151, N-(4-((6,7-dimethoxy-4-oxoquinolin-1 (4H)-yl)methyl)phenyl) sulfamide]"
6,> 1000 nM,"Cc1cc(N2CCC(CCNS(N)(=O)=O)CC2)ncn1 [Example 16, N-(2-(1-(6-methylpyrimidin-4-yl)piperidin-4-yl)ethyl)sulfamide]"
7,> 1000 nM,"COc1cc2nccc(C(=O)N3CCC(CCNS(N)(=O)=O)CC3)c2cc1OC [Example 154, N-(2-(1-(6,7-dimethoxyquinoline-4-carbonyl)piperidin-4-yl)ethyl)sulfamide]"
8,> 1000 nM,"COc1cc2nc(-c3ccccn3)nc(N3CCC(CCNS(N)(=O)=O)CC3)c2cc1OC [Example 4, N-(2-(1-(6,7-dimethoxy-2-(pyridin-2-yl)quinazolin-4-yl)piperidin-4-yl)ethyl)sulfamide]"
9,> 1000 nM,"COc1cc2ncnc(N3CCC(CCNS(=O)(=O)N(C)C)CC3)c2cc1OC [Example 143, 2-(1-(6,7-dimethoxyquinazolin-4-yl)piperidin-4-yl)ethan-1-amino(N,N-dimethyl)sulfonamide]"
10,100 to 1000 nM,"COc1cc2ncnc(N3CCC(CCNS(=O)(=O)c4ccccn4)CC3)c2cc1OC [Example 155, N-(2-(1-(6,7-dimethoxyquinazolin-4-yl)piperidin-4-yl)ethyl)pyridine-2-sulfonamide]"
11,> 1000 nM,"COc1cc(NC(C)=O)c(C(=O)N2CCC(CCNS(N)(=O)=O)CC2)cc1OC [Example 44, N-(4,5-dimethoxy-2-(4-(2-(sulfamoylamino)ethyl)piperidine-1-carbonyl)phenyl)acetamide]"
12,> 1000 nM,"CNS(=O)(=O)NCCC1CCN(c2ncnc3cc(OC)c(OC)cc23)CC1 [Example 168, 2-(1-(6,7-dimethoxyquinazolin-4-yl)piperidin-4-yl)ethan-1-amino(N-methyl)sulfonamide]"
13,> 1000 nM,"CNC(=O)c1cc(N2CCC(CCNS(N)(=O)=O)CC2)ncn1 [Example 130, N-methyl-6-(4-(2-(sulfamoylamino)ethyl)piperidin-1-yl)pyrimidine-4-carboxamide]"
14,> 1000 nM,"COc1ccc(-c2cc(N3CCC(CCNS(N)(=O)=O)CC3)ncn2)cc1OC [Example 38, N-(2-(1-(6-(3,4-dimethoxyphenyl)pyrimidin-4-yl)piperidin-4-yl)ethyl)sulfamide]"
15,< 100 nM,"COc1ccc2c(Oc3ccc(NS(N)(=O)=O)cc3)ncnc2c1 [Example 322, N-(4-((7-methoxyquinazolin-4-yl)oxy)phenyl)sulfamide]"
16,> 1000 nM,"COc1cc2ncc(-c3ccc(NS(N)(=O)=O)cc3)nc2cc1OC [Example 270, N-(4-(6,7-dimethoxyquinoxalin-2-yl)phenyl)sulfamide]"
17,> 1000 nM,"NS(=O)(=O)NCCC1CCN(c2ncnc3cc(OC(F)(F)F)ccc23)CC1 [Example 209, N-(2-(1-(7-(trifluoromethoxy)quinazolin-4-yl)piperidin-4-yl)ethyl)sulfamide]"
18,> 1000 nM,"CNc1cc(OC)c(OC)cc1C(=O)N1CCC(CCNS(N)(=O)=O)CC1 [Example 123, N-(2-(1-(4,5-dimethoxy-2-(methylamino)benzoyl)piperidin-4-yl)ethyl)sulfamide]"

# Reference: patent publication US20230183239A1, “ECTONUCLEOTIDE PYROPHOSPHATASE-PHOSPHODIESTERASE 1 (ENPP-1) INHIBITORS AND USES THEREOF” (AbbVie Inc., priority 2017, published 2023)
